Source: patent US20190119200A1, “TERTIARY AMIDES AND METHOD OF USE” (AbbVie Inc., priority 2016, published 2019)

Assays:
LPAR1 = target: T1, LPAR1 (Homo sapiens, UniProt Q92633); assay: LPAR1 FLIPR Assay; type: cell-based; settings: U2OS cells stably expressing LPAR1, LPA (EC80), Calcium 6 FLIPR dye; for Emax: read-out: Maximum Inhibition
T1 construct: host or cells: U2OS
In short: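 Calcium flux read-out (515-575 nm, FLIPR) in LPAR1-expressing U2OS cells after LPA challenge at EC80, given 3 min after compound addition; cells carried Calcium 6 dye loaded 2 h at 37° C. Eleven-point 3-fold dilutions were fitted with a four-parameter Hill equation for IC50.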

[1] = test system: LPA-induced MCP-1 in NRK-49F cells; assay: LPA-induced MCP-1 AlphaLISA assay; type: cell-based; settings: Rattus norvegicus, final LPA 10 μM, 7 hours; for Emax: read-out: Maximum Inhibition
In short: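 NRK-49F rat fibroblasts, serum-starved overnight, pretreated with compound for 30 min at 37 °C (1% DMSO final), then stimulated with 10 μM LPA final. MCP-1 in the supernatant was measured by mouse/rat CCL2 AlphaLISA. IC50 values came from four-parameter logistic fits of the ratio data.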

T1 sequence (Q92633 whole entry): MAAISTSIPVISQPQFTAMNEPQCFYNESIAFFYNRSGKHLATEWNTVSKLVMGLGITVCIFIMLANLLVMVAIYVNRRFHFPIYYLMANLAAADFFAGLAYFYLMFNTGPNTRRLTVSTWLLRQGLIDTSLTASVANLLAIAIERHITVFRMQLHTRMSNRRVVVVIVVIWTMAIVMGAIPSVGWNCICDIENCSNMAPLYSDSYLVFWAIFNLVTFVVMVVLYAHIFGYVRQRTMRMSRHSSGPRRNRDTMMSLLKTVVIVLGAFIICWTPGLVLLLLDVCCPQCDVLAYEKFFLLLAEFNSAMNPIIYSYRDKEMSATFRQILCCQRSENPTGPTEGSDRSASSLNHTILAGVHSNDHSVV

Row | Structure (SMILES) | IC50 (LPAR1) [nM] | Emax (LPAR1) [%] | IC50 [1] [nM] | Emax [1] [%]
1 | COc1cc(C(=O)N(CCCc2ccccc2)CCC[C@@H](C)C(=O)O)cc(OC)c1C (single isomer, unassigned) [Example 77] | 20 | 100 | 60 | 92
2 | COc1cc(C(=O)N(CCCc2ccccc2)CC(=O)NC2(C(=O)O)CC2)cc(OC)c1C [Example 3, 1-{[N-(3,5-dimethoxy-4-methylbenzoyl)-N-(3-phenylpropyl)glycyl]amino}cyclopropane-1-carboxylic Acid] | 71 | 52 | 3120 | 74
3 | COc1cc(C(=O)N(CCCCC(=O)O)CCCc2ccccc2)cc(OC)c1C [Example 4, 5-[(3,5-dimethoxy-4-methylbenzoyl)(3-phenylpropyl)amino]pentanoic Acid] | 14 | 98 | 188 | 91
4 | COc1cc(C(=O)N(CCCc2ccccc2)CCOCC(=O)O)cc(OC)c1C [Example 6, {2-[(3,5-dimethoxy-4-methylbenzoyl)(3-phenylpropyl)amino]ethoxy}acetic Acid] | 11 | 94 | 723 | 80
5 | COc1ccc(C2(C(=O)N(CCCCC(=O)O)CCCc3ccccc3)CC2)cc1 [Example 8, 5-{[1-(4-methoxyphenyl)cyclopropane-1-carbonyl](3-phenylpropyl)amino}pentanoic Acid] | 17 | 86 | 1830 | 84
6 | COc1cc(C(=O)N(CCCCC(=O)O)CCCc2ccccc2)cc(OC)c1OC [Example 10, 5-[(3-phenylpropyl)(3,4,5-trimethoxybenzoyl)amino]pentanoic Acid] | 64 | 92 | 4840 | 70
7 | COc1cc(C(=O)N(CCCCC(=O)O)CCCc2ccccc2)cc(OC)c1Br [Example 20, 5-[(4-bromo-3,5-dimethoxybenzoyl)(3-phenylpropyl)amino]pentanoic Acid] | 20 | 99 | 169 | 89
8 | COc1cc(C(=O)N(CCCCC(=O)O)CCCc2ccccc2F)cc(OC)c1C [Example 32, 5-{(3,5-dimethoxy-4-methylbenzoyl)[3-(2-fluorophenyl)propyl]amino}pentanoic Acid] | 18 | 98 | 473 | 89
9 | COc1cc(C(=O)N(CCCCC(=O)O)CCCc2cccc(F)c2)cc(OC)c1C [Example 33, 5-{(3,5-dimethoxy-4-methylbenzoyl)[3-(3-fluorophenyl)propyl]amino}pentanoic Acid] | 19 | 99 | 215 | 84
10 | COc1cc(C(=O)N(CCCCC(=O)O)CCCc2ccc(F)cc2)cc(OC)c1C [Example 34, 5-{(3,5-dimethoxy-4-methylbenzoyl)[3-(4-fluorophenyl)propyl]amino}pentanoic Acid] | 24 | 96 | 786 | 77
11 | COc1cc(C(=O)N(CCCCC(=O)O)CCCc2ccccc2)cc(OC)c1C1CC1 [Example 35, 5-[(4-cyclopropyl-3,5-dimethoxybenzoyl)(3-phenylpropyl)amino]pentanoic Acid] | 32 | 98 | 107 | 92
12 | COc1cc(C(=O)N(CCCCC(=O)O)CCCc2ccccc2)cc(OC)c1C(F)(F)F [Example 37, 5-{[3,5-dimethoxy-4-(trifluoromethyl)benzoyl](3-phenylpropyl)amino}pentanoic Acid] | 32 | 96 | 479 | 81
13 | COc1cc(C(=O)N(CCCCC(=O)O)CCCc2cccc(Cl)c2)cc(OC)c1C [Example 38, 5-{[3-(3-chlorophenyl)propyl](3,5-dimethoxy-4-methylbenzoyl)amino}pentanoic Acid] | 14 | 99 | 108 | 91
14 | COc1cc(C(=O)N(CCCc2ccccc2)CCSCC(=O)O)cc(OC)c1C [Example 44, ({2-[(3,5-dimethoxy-4-methylbenzoyl)(3-phenylpropyl)amino]ethyl}sulfanyl)acetic Acid] | 8 | 96 | 410 | 91
15 | COc1cc(C(=O)N(CCCc2ccccc2)CCOCP(=O)(O)O)cc(OC)c1C [Example 50, ({2-[(3,5-dimethoxy-4-methylbenzoyl)(3-phenylpropyl)amino]ethoxy}methyl)phosphonic Acid] | 3 | 101 | 2 | 98
16 | COc1cc(C(=O)N(CCCc2ccccc2)CCCC(C)(C)C(=O)O)cc(OC)c1C [Example 57, 5-[(3,5-dimethoxy-4-methylbenzoyl)(3-phenylpropyl)amino]-2,2-dimethylpentanoic Acid] | 35 | 100 | 39 | 97
17 | COc1cc(C(=O)N(CCCc2ccccc2)CCSCCC(=O)O)cc(OC)c1C [Example 60, 3-({2-[(3,5-dimethoxy-4-methylbenzoyl)(3-phenylpropyl)amino]ethyl}sulfanyl)propanoic Acid] | 20 | 95 | 1550 | 84
18 | COc1cc(C(=O)N(CCCc2ccccc2)CCSC(C)CC(=O)O)cc(OC)c1C (centres unmarked) [Example 62, 3-({2-[(3,5-dimethoxy-4-methylbenzoyl)(3-phenylpropyl)amino]ethyl}sulfanyl)butanoic Acid] | 29 | 97 | 184 | 94
19 | COc1cc(OC)cc(C(=O)N(CCCCC(=O)O)CCCc2cccc(Cl)c2)c1 [Example 91, 5-{[3-(3-chlorophenyl)propyl](3,5-dimethoxybenzoyl)amino}pentanoic Acid] | 25 | 89 | 2090 | 84
20 | COc1cc(C(=O)N(CCCc2cccc(Cl)c2)CCOCC(=O)O)cc(OC)c1C [Example 109, (2-{[3-(3-chlorophenyl)propyl](3,5-dimethoxy-4-methylbenzoyl)amino}ethoxy)acetic Acid] | 15 | 93 | 1550 | 91
21 | COc1cc(C(=O)N(CCCc2ccccc2F)CCOCC(=O)O)cc(OC)c1C [Example 110, (2-{(3,5-dimethoxy-4-methylbenzoyl)[3-(2-fluorophenyl)propyl]amino}ethoxy)acetic Acid] | 16 | 90 | 1260 | 83
22 | COc1cc(C(=O)N(CCCCC(=O)NS(C)(=O)=O)CCCc2ccccc2)cc(OC)c1C [Example 111, N-{5-[(methanesulfonyl)amino]-5-oxopentyl}-3,5-dimethoxy-4-methyl-N-(3-phenylpropyl)benzamide] | 28 | 95 | 787 | 91
23 | COc1ccc(C2(C(=O)N(CCCc3ccccc3)CCSCC(=O)O)CC2)cc1 [Example 115, [(2-{[1-(4-methoxyphenyl)cyclopropane-1-carbonyl](3-phenylpropyl)amino}ethyl)sulfanyl]acetic Acid] | 30 | 78 | 3540 | 67
24 | COc1cc(C(=O)N(CCCc2ccccc2F)CCSCC(=O)O)cc(OC)c1C [Example 116, [(2-{(3,5-dimethoxy-4-methylbenzoyl)[3-(2-fluorophenyl)propyl]amino}ethyl)sulfanyl]acetic Acid] | 20 | 88 | 173 | 85
25 | COc1cc(C(=O)N(CCCc2cccc(F)c2)CCSCC(=O)O)cc(OC)c1C [Example 117, [(2-{(3,5-dimethoxy-4-methylbenzoyl)[3-(3-fluorophenyl)propyl]amino}ethyl)sulfanyl]acetic Acid] | 10 | 93 | 180 | 91
26 | COc1cc(C(=O)N(CCCc2cccc(Cl)c2)CCSCC(=O)O)cc(OC)c1C [Example 122, [(2-{[3-(3-chlorophenyl)propyl](3,5-dimethoxy-4-methylbenzoyl)amino}ethyl)sulfanyl]acetic Acid] | 10 | 95 | 419 | 97
27 | COc1cc(C(=O)N(CCCc2cccc(F)c2)CCOCC(=O)O)cc(OC)c1C [Example 129, (2-{(3,5-dimethoxy-4-methylbenzoyl)[3-(3-fluorophenyl)propyl]amino}ethoxy)acetic Acid] | 20 | 93 | 968 | 90
28 | COc1cc(C(=O)N(CCCc2ccccc2Cl)CCOCC(=O)O)cc(OC)c1C [Example 131, (2-{[3-(2-chlorophenyl)propyl](3,5-dimethoxy-4-methylbenzoyl)amino}ethoxy)acetic Acid] | 21 | 86 | 1730 | 71
29 | COc1cc(C(=O)N(CCCc2ccc(C)o2)CCSCC(=O)O)cc(OC)c1C [Example 132, [(2-{(3,5-dimethoxy-4-methylbenzoyl)[3-(5-methylfuran-2-yl)propyl]amino}ethyl)sulfanyl]acetic Acid] | 10 | 86 | 783 | 80
